Assays:
Pfs16 [1] = target: T1, Pfs16 (Plasmodium falciparum, UniProt Q6ZMA7); experiment: CETSA melt curve with immunoblot; format: biochemical; conditions: 100 µM compound
T1 construct: native full-length protein in stage V gametocytes or their Triton X-100 lysate; 157 residues, 16 kDa, one TM domain
T1 sequence (Q6ZMA7 26-157): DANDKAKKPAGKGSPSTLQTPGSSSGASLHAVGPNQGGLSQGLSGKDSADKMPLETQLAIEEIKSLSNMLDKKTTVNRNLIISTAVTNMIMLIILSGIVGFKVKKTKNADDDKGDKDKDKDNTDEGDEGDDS

Pfs16 [2] = target: T1, Pfs16; experiment: photoaffinity labelling of live gametocytes, pulldown, TMT LC-MS/MS and immunoblot; format: cell-based; conditions: covalent (aryl azide photo-crosslink, 254 nm); 2.5 to 10 µM probe, 37 °C

O=S(=O)(NCC1(O)CCOc2ccccc21)c1cccc(Br)c1 (single isomer, unassigned; (-)) [(−)-DDD01028076]
Tm shift (Pfs16 [1]; pH 7.5, stage V gametocyte lysate): A shift in the Pfs16 melting curve was also evident in the presence of (−)-DDD01028076

O=S(=O)(NCC1(O)CCOc2ccccc21)c1ccc(Br)s1 (stereo not drawn) [DDD01035881]
Tm shift (Pfs16 [1]; pH 7.5, activated stage V gametocyte lysate, also isothermal dose response at 78.4 °C, 1 nM to 100 µM): DDD01035881 treatment clearly resulted in a positive shift in the Pfs16 melting curve

C#Cc1ccc2c(c1)C(O)(CNS(=O)(=O)c1cccc(N=[N+]=[N-])c1)CCO2 (stereo not drawn) [compound 2, probe 2]
photoaffinity labelling of live gametocytes, pulldown, TMT LC-MS/MS and immunobl (Pfs16 [2]): a dose-dependent pulldown of Pfs16 was clearly observed

From PMC9934914, “A novel class of sulphonamides potently block malaria transmission by targeting a Plasmodium vacuole membrane protein” (Disease Models & Mechanisms, 2023)
